Results: patent publication US20150126581A1, “MicroRNAs and Uses Thereof” (The University of Western Australia, priority 2012, published 2015)

What was measured:
[1] = tested on: obese diabetic mice; settings: cited from earlier work
[2] = tested on: HeLa cells; experiment: CellTiter 96 AQueous One (MTS) endpoint growth assay with mimosine; type: cell-based, human; settings: mimosine 50 and 250 μM, 3 d exposure (Day 5 post miRNA transfection)
Experimental: Endpoint growth assays were then performed using the CellTiter 96® AQueous One Solution Cell Proliferation System (MTS) (Promega, USA) to determine effects of miRNAs and mimosine on cell proliferation. HeLa cells were transiently transfected with miRNA negative control or hsa-miR-331-3p/hsa-miR-642-5p as described above, and 5000 transiently transfected HeLa cells were plated in 96 well plates. Plates were incubated in a 37° C. incubator (5% CO2) for 2 days and then exposed for a further 3 days to mimosine (0, 50 or 250 μM). Media was then replaced with a MTS substrate/growth media mixture (180 μL of growth media, 20 μL MTS reagent) and left for 30 min at 37° C. Absorbance was measured using a Fluostar Optima Instrument (Walker scientific) at 450 nm.

[3] = tested on: HeLa cells; experiment: Observation of HeLa cell morphology and size under mimosine; type: cell-based, human; settings: increasing concentrations of mimosine
Experimental: The effect of the combination of hsa-miR-331-3p and hsa-miR-642-5p on the transient effects of the DOHH inhibitor mimosine in HeLa cells was assessed. Initially, the xCELLigence™ System was used but growth curves could not be established using mimosine that reflected the observed changes in cell viability (data not shown). […] This was attributed to the ability of mimosine to arrest cell in […] and increase cell size by up to 25%.

[4] = tested on: HeLa cells; settings: stated ability of mimosine (arrest in G1); cited from earlier work

SMILES	Glucose tolerance [1]	Insulin release [1]	β cell mass [1]	HeLa cell proliferation (MTS), mimosine alone [2]	HeLa cell morphology [3]	Increase of cell size [4]
N=C(N)NCCCCCCCN [GC7, N1-guanyl-1,7-diaminoheptane]	improved glucose tolerance	increased insulin release	enhanced β cell mass	–	–	–
NC(Cn1ccc(=O)c(O)c1)C(=O)O (stereo not drawn) [mimosine]	–	–	–	significant block of cell proliferation	changed the morphology of HeLa cells from a spindle like epithelial morphology to a large, round and flattened morphology	up to 25%
